Experimental data from patent US12643912B2, “Macrocyclic compounds, a process for their preparation and pharmaceutical compositions containing them” (LES LABORATOIRES SERVIER, priority 2020, dated 2026).
Where two headings read alike, the source gives them in different places.

Experiments:
Keap1 (A321-C624) (h) = target: T1, Keap1 (A321-C624) (h) (Homo sapiens, UniProt Q14145); experiment: Surface Plasmon Resonance binding assay to Kelch domain of KEAP1; settings: Biacore T200, 25° C., immobilized His-Thromb-KEAP1(A321-C624), single cycle kinetics, KD=kd/ka from 1:1 fit; read-out: Keap1 (A321-C624) (h) direct/SPR (KD)
T1 construct: His-Thromb-KEAP1(A321-C624) acquired from Novalix (batch PU-P01) was immobilized covalently by amine coupling; His tag (N); thrombin cleavage site (Thromb) (N); purchased Novalix batch PU-P01
Experimental: EXAMPLE 85: SURFACE PLASMON RESONANCE
Binding assay to Kelch domain of KEAP1 was performed by Surface Plasmon Resonance (SPR) on a Biacore T200 (GE Healthcare) at 25° C. using CM5 chip. His-Thromb-KEAP1(A321-C624) acquired from Novalix (batch PU-P01) was immobilized covalently by amine coupling using standard wizard protocol, at a concentration of 20 μg/mL in sodium acetate pH 5.5. The ligand was captured until 1250 RU was reached. Amine blank is used as the reference flow cell. Binding of analyte to the ligand was monitored in real time with associations of 180 seconds and a dissociation of 720 seconds. Association (ka) and dissociation (kd) rates were fitted with a simple 1:1 kinetic interaction model using Biacore T200 Evaluation Software (GE Healthcare). The equilibrium constant (KD=kd/ka) was calculated from these fitted parameters. […] The Biacore binding assay was performed with a flowrate of 50 μL/min using a running buffer of 10 mM HEPES (pH 7.4), 150 mM NaCl, 3 mM EDTA, 1 mM TCEP, 0.05% P20,5% DMSO. Double subtraction was used by subtracting both reference flow cell and previous blank cycle (with running buffer). Solvent correction was applied to correct DMSO bulk effect.

[1] = test system: Nrf2 (Keap1-NRF2 nuclear translocation); experiment: U2OS translocation assay (PathHunter U2OS Keap1-NRF2 Nuclear Translocation Cell Line); assay type: cell-based
Method in brief: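 Enzyme-fragment complementation read-out: luminescence after 60 min of detection reagent at room temperature, following a 3 h, 37° C compound exposure of engineered U2OS Keap1-NRF2 translocation cells (1% FBS medium). Signal scaled from 1% DMSO basal to 10 μM andrographolide maximum.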

[2] = read-out: CELLULAR U2OS EC50, U2OS Keap1-NRF2 nuclear translocation cells, 3 h incubation, luminescence, normalized between 1% DMSO and 10 μM andrographolide
[3] = Homo sapiens, U2OS, 3 h, read-out: CELLULAR U2OS EC50 (nM), U2OS Keap1-NRF2 nuclear translocation cells, 3 h incubation, luminescence, normalized between 1% DMSO and 10 μM andrographolide

T1 sequence (Q14145 321-624): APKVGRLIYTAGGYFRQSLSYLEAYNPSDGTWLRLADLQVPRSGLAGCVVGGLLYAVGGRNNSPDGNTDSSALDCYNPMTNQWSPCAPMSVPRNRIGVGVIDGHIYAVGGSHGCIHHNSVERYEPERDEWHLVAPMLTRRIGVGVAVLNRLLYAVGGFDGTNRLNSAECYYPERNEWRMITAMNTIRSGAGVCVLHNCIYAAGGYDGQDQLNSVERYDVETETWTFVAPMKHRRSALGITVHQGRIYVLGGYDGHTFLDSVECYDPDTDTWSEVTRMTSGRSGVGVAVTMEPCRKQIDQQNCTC

Row | Compound | Kd (Keap1 (A321-C624) (h)) [nM] | EC50 [1, 2] [nM] | EC50 [1, 3] [nM]
1 | Cc1ccc2cc1CN1Cc3cc(ccc3OS1(=O)=O)OCc1ccccc1OCCCn1nnc3c(C)c(ccc31)C2CC(=O)O (single isomer, unassigned) [Example 57a, [4,38-Dimethyl-34,34-dioxo-20,28,33-trioxa-34λ^6-thia-1,14,15,16-tetraazaheptacyclo[27.5.3.1^3,70.1^9,130.0^12,160.0^21,260.0^32,36]nonatriaconta-3(39),4,6,9(38),10,12,14,21,23,25,29,31,36-tridecaen-8-yl]acetic acid] | 58.9 | 496 | 
2 | COc1ccc2cc1CN1Cc3cc(ccc3OS1(=O)=O)OCCCCn1nnc3c(C)c(ccc31)C2CC(=O)O (single isomer, unassigned) [Example 10b, [4-Methoxy-31-methyl-27,27-dioxo-21,26-dioxa-27λ^6-thia-1,14,15,16-tetraazahexacyclo[20.5.3.1^3,70.1^9,130.0^12,160.0^25,29]dotriaconta-3(32),4,6,9(31),10,12,14,22,24,29-decaen-8-yl]acetic acid] | 15.1 | 369 | 
3 | Cc1ccc2cc1CN1Cc3cc(ccc3OS1(=O)=O)OCCN(c1ccccc1)CCn1nnc3c(C)c(ccc31)C2CC(=O)O (single isomer, unassigned) [Example 58a, [4,32-Dimethyl-28,28-dioxo-19-phenyl-22,27-dioxa-28λ^6-thia-1,14,15,16,19-pentaazahexacyclo[21.5.3.1^3,70.1^9,130.0^12,160.0^26,30]tritriaconta-3(33),4,6,9(32),10,12,14,23,25,30-decaen-8-yl]acetic acid] | 4.66 | 90.4 | 
4 | Cc1ccc2cc1CN1Cc3cc(ccc3OS1(=O)=O)OC[C@H](O)CCn1nnc3c(C)c(ccc31)C2CC(=O)O (stereo partly drawn) [Example 44, [(19R)-19-hydroxy-4,31-dimethyl-27,27-dioxo-21,26-dioxa-27λ^6-thia-1,14,15,16-tetraazahexacyclo[20.5.3.1^3,70.1^9,130.0^12,160.0^25,29]dotriaconta-3(32),4,6,9(31),10,12,14,22,24,29-decaen-8-yl]acetic acid] | 0.146 |  | 292
5 | Cc1cc2cc(c1Cl)CN1Cc3cc(ccc3OS1(=O)=O)OCCCCn1nnc3c(C)c(ccc31)C2CC(=O)O (single isomer, unassigned) [Example 36a, [4-Chloro-5,31-dimethyl-27,27-dioxo-21,26-dioxa-27λ^6-thia-1,14,15,16-tetraazahexacyclo[20.5.3.1^3,70.1^9,130.0^12,160.0^25,29]dotriaconta-3(32),4,6,9(31),10,12,14,22,24,29-decaen-8-yl]acetic acid] | 9.02 | 126 | 
6 | Cc1ccc2cc1CN1Cc3cc(ccc3OS1(=O)=O)OCCSCCn1nnc3c(C)c(ccc31)C2CC(=O)O (single isomer, unassigned) [Example 63a, [4,32-Dimethyl-28,28-dioxo-22,27-dioxa-19,28λ^6-dithia-1,14,15,16-tetraazahexacyclo[21.5.3.1^3,70.1^9,130.0^12,160.0^26,30]tritriaconta-3(33),4,6,9(32),10,12,14,23,25,30-decaen-8-yl]acetic acid] | 4.39 |  | 57.1
7 | Cc1ccc2cc1CN1Cc3cc(ccc3OS1(=O)=O)OCCCCCn1nnc3c(C)c(ccc31)C2CC(=O)O (single isomer, unassigned) [Example 1a, [4,32-dimethyl-28,28-dioxo-22,27-dioxa-28λ^6-thia-1,14,15,16-tetraazahexacyclo[21.5.3.1^3,70.1^9,130.0^12,160.0^26,30]tritriaconta-3(33),4,6,9(32),10,12,14,23,25,30-decaen-8-yl]acetic acid] | 0.181 | 10.1 | 
8 | COc1cc2cc3c1OS(=O)(=O)N(Cc1cc(ccc1C)C(CC(=O)O)c1ccc4c(nnn4CCCCO2)c1C)C3 (single isomer, unassigned) [Example 16a, [24-Methoxy-4,31-dimethyl-27,27-dioxo-21,26-dioxa-27λ^6-thia-1,14,15,16-tetraazahexacyclo[20.5.3.1^3,70.1^9,130.0^12,160.0^25,29]dotriaconta-3(32),4,6,9(31),10,12,14,22,24,29-decaen-8-yl]acetic acid] | 4.03 | 871 | 
9 | Cc1c2ccc3c1nnn3CCCCOc1ccc3c(c1)CN(Cc1cccc(c1)C2CC(=O)O)S(=O)(=O)O3 (stereo not shown) [Example 6, [31-Methyl-27,27-dioxo-21,26-dioxa-27λ^6-thia-1,14,15,16-tetraazahexacyclo[20.5.3.1^3,70.1^9,130.0^12,160.0^25,29]dotriaconta-3(32),4,6,9(31),10,12,14,22,24,29-decaen-8-yl]acetic acid] | 33.7 |  | 1330
10 | COc1cc2cc3c1OS(=O)(=O)N(C3)[C@H](C)c1cc(ccc1C)[C@@H](CC(=O)O)c1ccc3c(nnn3CCCCO2)c1C [Example 23a, [(2R,8R)-24-Methoxy-2,4,31-trimethyl-27,27-dioxo-21,26-dioxa-27λ^6-thia-1,14,15,16-tetraazahexacyclo[20.5.3.1^3,70.1^9,130.0^12,160.0^25,29]dotriaconta-3(32),4,6,9(31),10,12,14,22,24,29-decaen-8-yl]acetic acid] | 50.5 |  | 3160
11 | [2H]C([2H])(C(=O)O)[C@@H]1c2ccc(C)c(c2)CN2Cc3cc(ccc3OS2(=O)=O)OCCCCn2nnc3c(C)c1ccc32 [Example 55a, [(8R)-4,31-Dimethyl-27,27-dioxo-21,26-dioxa-27λ^6-thia-1,14,15,16-tetraazahexacyclo[20.5.3.1^3,70.1^9,130.0^12,160.0^25,29]dotriaconta-3(32),4,6,9(31),10,12,14,22,24,29-decaen-8-yl](^2H2)acetic acid] | 2 |  | 183
12 | COc1ccc2cc1CN1Cc3cc(ccc3OS1(=O)=O)OCc1ccccc1SCCCCn1nnc3c(C)c(ccc31)C2CC(=O)O (single isomer, unassigned) [Example 54a] | 90.5 |  | 1290
13 | Cc1ccc2cc1CN1Cc3cc(ccc3OS1(=O)=O)OCCCn1nnc3c(C)c(ccc31)C2CC(=O)O (racemic) [Example 2, [4,30-Dimethyl-26,26-dioxo-20,25-dioxa-26λ^6-thia-1,14,15,16-tetraazahexacyclo[19.5.3.1^3,70.1^9,130.0^12,160.0^24,28]hentriaconta-3(31),4,6,9(30),10,12,14,21,23,28-decaen-8-yl]acetic acid] | 35.2 |  | 830
14 | Cc1ccc2cc1CN1Cc3cc(ccc3OS1(=O)=O)OCCCCCCn1nnc3c(C)c(ccc31)C2CC(=O)O (single isomer, unassigned) [Example 11b, [4,33-Dimethyl-29,29-dioxo-23,28-dioxa-29λ^6-thia-1,14,15,16-tetraazahexacyclo[22.5.3.1^3,70.1^9,130.0^12,160.0^27,31]tetratriaconta-3(34),4,6,9(33),10,12,14,24,26,31-decaen-8-yl]acetic acid] | 0.778 | 13.1 | 
15 | Cc1ccc2cc1[C@@H](C)N1Cc3cc(ccc3OS1(=O)=O)OCCOCCCn1nnc3c(C)c(ccc31)[C@H]2CC(=O)O [Example 26a, [(2R,8S)-2,4,33-Trimethyl-29,29-dioxo-20,23,28-trioxa-29λ^6-thia-1,14,15,16-tetraazahexacyclo[22.5.3.1^3,70.1^9,130.0^12,160.0^27,31]tetratriaconta-3(34),4,6,9(33),10,12,14,24,26,31-decaen-8-yl]acetic acid] | 3.4 |  | 11.3
16 | Cc1c2ccc3c1nnn3CCCCOc1ccc3c(c1)CN(Cc1cc(F)cc(c1)C2CC(=O)O)S(=O)(=O)O3 (stereo not shown) [Example 4, [5-Fluoro-31-methyl-27,27-dioxo-21,26-dioxa-27λ^6-thia-1,14,15,16-tetraazahexacyclo[20.5.3.1^3,70.1^9,130.0^12,160.0^25,29]dotriaconta-3(32),4,6,9(31),10,12,14,22,24,29-decaen-8-yl]acetic acid] | 255 |  | 3470
17 | Cc1c(F)cc2cc1CN1Cc3cc(ccc3OS1(=O)=O)OCCCCn1nnc3c(C)c(ccc31)C2CC(=O)O (single isomer, unassigned) [Example 18a, [5-Fluoro-4,31-dimethyl-27,27-dioxo-21,26-dioxa-27λ^6-thia-1,14,15,16-tetraazahexacyclo[20.5.3.1^3,70.1^9,130.0^12,160.0^25,29]dotriaconta-3(32),4,6,9(31),10,12,14,22,24,29-decaen-8-yl]acetic acid] | 3.67 | 1140 | 
